# Results published in publication PMC9774128, “New Insights into the Mechanism of Antibacterial Action of Synthetic Peptide Mo-CBP3-PepI against Klebsiella pneumoniae” (Antibiotics, 2022).
# What was measured:
# K. pneumoniae cells [1] = assay: ROS overproduction (DCFH-DA fluorescence microscopy); format: cell-based, Klebsiella pneumoniae; conditions: peptide 31.25 µg mL^−1, 24 h, 1 mM DCFH-DA 30 min
# Procedure: This assay was conducted in the same way as above but with a few differences. The preparation of cell suspension and the antimicrobial assay was performed in the same way described above. After the three rounds of centrifugation and washes, the cells were incubated with 1 mM 2,7-dichlorofluorescein diacetate (DCFH-DA) for 30 min, in the dark, at 37 °C. After the washes, the cells were also observed under a fluorescence microscope (Olympus System BX60; excitation wavelength, 488 nm; emission wavelength, 525 nm).
# [2] = set-up: method as in PMID 30389515; conditions: design feature; cited from earlier work
# Source text: Synthetic antimicrobial peptides emerged as a solution to solve the problems presented by natural antimicrobial peptides. […] To answer the first question, it is necessary to revert to the design process of Mo-CBP3-PepI.
# [3] = system: K. pneumoniae (ATCC 10031); set-up: method as in PMID 30389515; conditions: against K. pneumoniae; cited from earlier work
# K. pneumoniae cells [4] = conditions: 31.25 µg mL^−1, 24 h
# Procedure: After this, samples were washed twice with 50 mM sodium acetate pH 5.2, with centrifugations at 12,000× g for 15 min at 4 °C. At the end of the washes, the samples were resuspended in 300 µL in the same buffer and frozen for 24 h. Then, the frozen samples were sonicated for 30 min to break the cell wall and membrane, the samples were centrifuged again, and the supernatant was collected.
# After that, the Bradford assay was performed to determine the protein concentration in the samples. This step was followed by adding a 10 mM DTT solution under incubation for 1 h at 37 °C to reduce the proteins. Then iodoacetamide was added to a final concentration of 15 mM and incubated for 30 min in a dark room to alkylate the reduced proteins. The proteins reduced and alkylated were digested using trypsin gold (Promega, Madison, WI, USA) to a final concentration of 1:20 (w/w) as described by manufacturers. The trypsin digestion was performed for 16 h at 37 °C. Finally, the samples were dried in a speed vacuum (Eppendorf, Hamburg, Germany) for 3 h and analyzed by ESI-QUAD-TOF mass spectrometer.
# Tandem mass spectra were extracted into PKL files for both samples, and the proteins were searched using MASCOT MS/MS ions search from MATRIX SCIENCE (https://www.matrixscience.com/cgi/search_form.pl?FORMVER=2&SEARCH=MIS (accessed on 15 September 2022)) against UP625_E_coli_K12 (AA), UP808_K_pneumoniae and SwissProt databases (the taxonomy was set in bacteria). The terms for the search were: fixed modifications to Carbamidomethyl (C); variable modifications to Oxidation […]; the Peptide tolerance was set to 1.2 DA (with 1% FDR); the MS/MS tolerance was set to 0.6 DA; the peptide charge was set to 2+, 3+, and 4+; and finally, the instrument was set to ESI-QUAD-TOF. The proteins identified in both samples were searched for in UNIPROT and separated into 3 sets (unique from control, unique from the cells treated with Mo-CBP3-PepI, and Mo-CBP3-PepI x control shared proteins).
# The proteins with a fold-change value ≥ 1.5 (p < 0.05, Tukey’s test) that were up-accumulated (increased the abundance), and proteins with a fold-change value ≤ 0.5 (p < 0.05, Tukey’s test) that were down-accumulated (decreased the abundance) were taken into consideration for comparisons. For each protein, its corresponding FASTA file was downloaded. Then, the blast2go program (https://www.blast2go.com/ (accessed on 30 September 2022)) was used to categorize the proteins detected by Gene Ontology (GO) annotation according to Molecular function, […], and subcellular location.
# [5] = system: K. pneumoniae cell membrane; assay: Cell membrane integrity by propidium iodide uptake; format: cell-based, Klebsiella pneumoniae; conditions: peptide 31.25 µg mL^−1, 24 h
# Procedure: The assay was conducted as described by Oliveira et al., with some modifications. Preparation of cell suspension was completed as mentioned above. After, 50 µL of the diluted bacteria solution was incubated in the dark for 24 h, at 37 °C, with 50 µL of the peptide solution (31.25 µg mL^−1) previously prepared with 5% of dimethyl sulfoxide (DMSO) diluted in 0.15 M NaCl solution. The assay was conducted in 1.5 mL microtubes. The diluted bacteria solution was incubated only with the DMSO-NaCl solution for control. After incubation, the microtubes were centrifuged (5000× g, 5 min, 4 °C) and washed three times. Next, the washed cells were incubated with 1 µM propidium iodide for 30 min, in the dark, at 37 °C. After this, the cells were washed two times with saline solution to remove the excess fluorophore and observed with a fluorescence microscope (Olympus System BX 60; excitation wavelength, 488 nm; emission wavelength, […]).
sequence,measurement,setting,value
CPAIQRCC [Mo-CBP3-PepI],ROS overproduction,K. pneumoniae cells [1],slight accumulation of ROS
same,hydrophobic ratio,[2],62%
same,net charge,[2],+1
same,MIC50,[3],31.25 µg/mL
same,Fold Change Mo-CBP3-PepI vs. DMSO: Methylenetetrahydrofolate--tRNA-(uracil-5-)-methyltransferase TrmFO,K. pneumoniae cells [4]; A4WRQ2,0.948
same,Fold Change Mo-CBP3-PepI vs. DMSO: 50S ribosomal protein L22,K. pneumoniae cells [4]; A5IYY1,0.187
same,Fold Change Mo-CBP3-PepI vs. DMSO: Phosphoenolpyruvate carboxykinase (ATP),K. pneumoniae cells [4]; A8AQV7,0.990
same,Fold Change Mo-CBP3-PepI vs. DMSO: Xylose isomerase,K. pneumoniae cells [4]; B5ZQV6,1.062
same,Fold Change Mo-CBP3-PepI vs. DMSO: Pantothenate synthetase,K. pneumoniae cells [4]; B8I2Z3,1.142
same,Fold Change Mo-CBP3-PepI vs. DMSO: Chaperonin GroEL,K. pneumoniae cells [4]; P0A6F5,1.444
same,Fold Change Mo-CBP3-PepI vs. DMSO: Pantothenate kinase,K. pneumoniae cells [4]; P0A6I3,0.548
same,Fold Change Mo-CBP3-PepI vs. DMSO: HTH-type transcriptional regulator ArgP,K. pneumoniae cells [4]; P0A8S1,2.364
same,Fold Change Mo-CBP3-PepI vs. DMSO: 50S ribosomal protein L7/L12,K. pneumoniae cells [4]; P0A466,1.979
same,Fold Change Mo-CBP3-PepI vs. DMSO: Zinc resistance-associated protein,K. pneumoniae cells [4]; P0AAA9,1.682
same,Fold Change Mo-CBP3-PepI vs. DMSO: Cysteine synthase A,K. pneumoniae cells [4]; P0ABK5,0.596
same,Fold Change Mo-CBP3-PepI vs. DMSO: Fimbriae Z protein,K. pneumoniae cells [4]; P0AEL8,0.690
same,Fold Change Mo-CBP3-PepI vs. DMSO: Ferrichrome outer membrane transporter/phage receptor,K. pneumoniae cells [4]; P06971,1.063
same,Fold Change Mo-CBP3-PepI vs. DMSO: Iron (3+)-hydroxamate import system permease protein FhuB,K. pneumoniae cells [4]; P06972,0.948
same,Fold Change Mo-CBP3-PepI vs. DMSO: 2-succinyl-5-enolpyruvyl-6-hydroxy-3-cyclohexene-1-carboxylate synthase,K. pneumoniae cells [4]; P17109,3.486
same,Fold Change Mo-CBP3-PepI vs. DMSO: Sensor protein PhoQ,K. pneumoniae cells [4]; P23837,0.823
same,Fold Change Mo-CBP3-PepI vs. DMSO: Lipopolysaccharide core biosynthesis protein RfaZ,K. pneumoniae cells [4]; P27241,2.038
same,Fold Change Mo-CBP3-PepI vs. DMSO: Inner membrane protein YhjD,K. pneumoniae cells [4]; P37642,0.362
same,Fold Change Mo-CBP3-PepI vs. DMSO: Gamma-glutamylputrescine oxidoreductase,K. pneumoniae cells [4]; P37906,0.985
same,Fold Change Mo-CBP3-PepI vs. DMSO: Endonuclease 8,K. pneumoniae cells [4]; P50465,0.287
same,Fold Change Mo-CBP3-PepI vs. DMSO: Sensor histidine kinase GlrK,K. pneumoniae cells [4]; P52101,0.752
same,Fold Change Mo-CBP3-PepI vs. DMSO: 2.3-bisphosphoglycerate-dependent phosphoglycerate mutase,K. pneumoniae cells [4]; P62707,0.519
same,Fold Change Mo-CBP3-PepI vs. DMSO: Low affinity potassium transport system protein kup,K. pneumoniae cells [4]; P63183,1.704
same,Fold Change Mo-CBP3-PepI vs. DMSO: Peptide methionine sulfoxide reductase MsrB,K. pneumoniae cells [4]; P75129,14.104
same,Fold Change Mo-CBP3-PepI vs. DMSO: Probable cytosol aminopeptidase,K. pneumoniae cells [4]; P75206,2.097
same,Fold Change Mo-CBP3-PepI vs. DMSO: tRNA uridine 5-carboxymethylaminomethyl modification enzyme MnmG,K. pneumoniae cells [4]; P75221,0.487
same,Fold Change Mo-CBP3-PepI vs. DMSO: Phosphate acyltransferase,K. pneumoniae cells [4]; P75232,3.096
same,Fold Change Mo-CBP3-PepI vs. DMSO: Putative ABC transporter ATP-binding protein MPN_334,K. pneumoniae cells [4]; P75444,1.336
same,Fold Change Mo-CBP3-PepI vs. DMSO: Putative acetyltransferase MPN_114,K. pneumoniae cells [4]; P75448,1.703
same,Fold Change Mo-CBP3-PepI vs. DMSO: Cytadherence high molecular weight protein 2,K. pneumoniae cells [4]; P75471,1.682
same,Fold Change Mo-CBP3-PepI vs. DMSO: Oligopeptide transport ATP-binding protein OppD,K. pneumoniae cells [4]; P75552,0.948
same,Fold Change Mo-CBP3-PepI vs. DMSO: Phenylacetate-coenzyme A ligase,K. pneumoniae cells [4]; P76085,1.666
same,Fold Change Mo-CBP3-PepI vs. DMSO: Sensor histidine kinase HprS,K. pneumoniae cells [4]; P76339,0.213
same,Fold Change Mo-CBP3-PepI vs. DMSO: UDP-glucose 6-dehydrogenase,K. pneumoniae cells [4]; P76373,0.902
same,Fold Change Mo-CBP3-PepI vs. DMSO: Cation efflux system protein CusC,K. pneumoniae cells [4]; P77211,0.920
same,Fold Change Mo-CBP3-PepI vs. DMSO: Glycerate 3-kinase,K. pneumoniae cells [4]; P77364,0.745
same,Fold Change Mo-CBP3-PepI vs. DMSO: Glutathione S-transferase YfcF,K. pneumoniae cells [4]; P77544,0.273
same,Fold Change Mo-CBP3-PepI vs. DMSO: HTH-type transcriptional regulator SutR,K. pneumoniae cells [4]; P77626,2.566
same,Fold Change Mo-CBP3-PepI vs. DMSO: Lon protease,K. pneumoniae cells [4]; P78025,0.342
same,Fold Change Mo-CBP3-PepI vs. DMSO: Pyruvate kinase,K. pneumoniae cells [4]; P78031,3.139
same,Fold Change Mo-CBP3-PepI vs. DMSO: Undecaprenyl-diphosphatase,K. pneumoniae cells [4]; Q2KX31,1.340
same,Fold Change Mo-CBP3-PepI vs. DMSO: Periplasmic trehalase,K. pneumoniae cells [4]; Q4UZ12,0.937
same,Fold Change Mo-CBP3-PepI vs. DMSO: GMP synthase (glutamine-hydrolyzing),K. pneumoniae cells [4]; Q6APU2,4.596
same,Fold Change Mo-CBP3-PepI vs. DMSO: Elongation factor G,K. pneumoniae cells [4]; Q7NAV3,0.234
same,Fold Change Mo-CBP3-PepI vs. DMSO: Diaminopimelate decarboxylase,K. pneumoniae cells [4]; Q8K9C4,3.546
same,Fold Change Mo-CBP3-PepI vs. DMSO: Bifunctional protein FolD,K. pneumoniae cells [4]; Q88WM8,0.726
same,Fold Change Mo-CBP3-PepI vs. DMSO: Mgp-operon protein 3,K. pneumoniae cells [4]; Q50341,0.654
same,pore size indicated by movement of PI,[5],692.50 Da
same,membrane pore formation (PI uptake),"[5]; 37 °C, 1 µM PI 30 min, fluorescence microscopy",induced the pore formation
